Results published in patent US20260042755A1, “GPR6 INVERSE AGONISTS” (MapLight Therapeutics, Inc., priority 2022, published 2026).

Assays:
GPR6 = molecular target: T1, GPR6 (Homo sapiens, UniProt P46095); experiment: GPR6 antagonist functional cAMP assay (LANCE Ultra cAMP TR-FRET, CHO cells stably expressing GPR6); type: cell-based
T1 construct: expressed in transfected cells; host or cells: CHO cells
In short: (§1)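 We measure cAMP by TR-FRET (665 nm) in cells held in glucose-containing Krebs-Ringer buffer with BSA and a PDE inhibitor, after a 45 min, 37 °C compound incubation. IC50s derive from a four-parameter logistic fit.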

GPR3 = molecular target: T2, GPR3 (Homo sapiens, UniProt P46089); experiment: GPR3 antagonist functional cAMP assay (LANCE Ultra cAMP TR-FRET, CHO cells stably expressing GPR3); type: cell-based
T2 construct: expressed in transfected cells; host or cells: CHO cells
T2 sequence (P46089 whole entry, species assumed): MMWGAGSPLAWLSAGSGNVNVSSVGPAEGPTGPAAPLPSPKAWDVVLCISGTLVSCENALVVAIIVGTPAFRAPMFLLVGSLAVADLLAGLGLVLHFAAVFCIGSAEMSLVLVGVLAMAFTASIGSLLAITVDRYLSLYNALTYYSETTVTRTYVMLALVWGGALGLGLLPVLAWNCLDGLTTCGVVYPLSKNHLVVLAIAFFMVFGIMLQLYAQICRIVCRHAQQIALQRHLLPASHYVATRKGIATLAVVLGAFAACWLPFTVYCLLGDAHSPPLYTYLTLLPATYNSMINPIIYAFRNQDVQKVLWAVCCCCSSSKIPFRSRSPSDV
In short: as §1

[1] = CHO cells stably expressing GPR6, cAMP assay (Example 24)
[2] = CHO cells stably expressing GPR3, cAMP assay (Example 24)
[3] = CHO cells stably expressing GPR6, cAMP assay
[4] = CHO cells stably expressing GPR3, cAMP assay

T1 sequence (P46095 whole entry): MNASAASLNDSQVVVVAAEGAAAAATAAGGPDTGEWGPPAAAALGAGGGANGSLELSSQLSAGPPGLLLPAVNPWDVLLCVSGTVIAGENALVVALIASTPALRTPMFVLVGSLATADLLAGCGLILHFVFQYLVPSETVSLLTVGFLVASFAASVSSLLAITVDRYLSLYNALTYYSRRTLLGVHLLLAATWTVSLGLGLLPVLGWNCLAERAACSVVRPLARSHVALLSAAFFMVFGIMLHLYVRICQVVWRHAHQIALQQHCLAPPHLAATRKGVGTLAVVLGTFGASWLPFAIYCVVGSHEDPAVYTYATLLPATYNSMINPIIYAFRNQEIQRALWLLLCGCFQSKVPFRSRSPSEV

| SMILES | IC50 (GPR6; [1]) | IC50 (GPR3; [2]) | IC50 (GPR6; procedure of Example 24) | IC50 (GPR3; procedure of Example 24) | also measured |
| --- | --- | --- | --- | --- | --- |
| CC(=O)N1CCc2nc(N3CCC(Oc4ccc(F)cc4F)CC3)c(-c3cnn(C4COC4)c3)nc2C1 [Compound 77, 1-{2-[4-(2,4-difluorophenoxy)piperidin-1-yl]-3-[1-(oxetan-3-yl)-1H-pyrazol-4-yl]-5H,6H,7H,8H-pyrido [3,4-b]pyrazin-6-yl}ethan-1-one] | 100 to 1000 nM | 1000 to 30000 nM | – | – | – |
| CC(=O)N1CCc2nc(N3CCC(Oc4ccc(F)cc4F)CC3)c(-c3cnn(C4CN(C(C)=O)C4)c3)nc2C1 [Compound 163, 1-[3-(4-{6-acetyl-2-[4-(2,4-difluorophenoxy)piperidin-1-yl]-5H,6H,7H,8H-pyrido[3,4-b]pyrazin-3-yl}-1H-pyrazol-1-yl)azetidin-1-yl]ethan-1-one] | 1000 to 30000 nM | 1000 to 30000 nM | – | – | – |
| CCn1cc(-c2nc3cc(C(O)C(C)(C)O)ncc3nc2N2CCC(Oc3ccc(F)cc3F)CC2)cn1 (single isomer, unassigned) [Compound 588] | – | – | – | – | IC50 (GPR6; [3]): < 100 nM; IC50 (GPR3; [4]): 100 to 1000 nM |
| CC(=O)N1CCc2nc(N3CCC(C(F)c4ccc(F)cc4F)CC3)c(-c3cnn(C)c3)nc2C1 (stereo not drawn) [Compound 557, 1-(2-{4-[(2,4-difluorophenyl)fluoromethyl]-1-piperidyl}-3-(1-methyl-4-pyrazolyl)-5,6,7,8-tetrahydro-1,4,6-triaza-6-naphthyl)-1-ethanone] | – | – | – | – | IC50 (GPR6; [3]): < 100 nM; IC50 (GPR3; [4]): < 100 nM |
| CC(=O)N1CCc2nc(N3CCC(Oc4ccc(F)cc4F)CC3)c(C3=COCCC3)nc2C1 [Compound 219, 1-{2-[4-(2,4-difluorophenoxy)piperidin-1-yl]-3-(3,4-dihydro-2H-pyran-5-yl)-5H,6H,7H,8H-pyrido[3,4-b]pyrazin-6-yl}ethan-1-one] | 100 to 1000 nM | ≥ 30000 nM | – | – | – |
| Cn1cc(-c2nc3cnc(C(C)(O)CO)cc3nc2N2CCC(Oc3ccc(F)cc3F)CC2)cn1 (stereo not drawn) [Compound 556, 2-{2-[4-(2,4-difluorophenoxy)-1-piperidyl]-3-(1-methyl-4-pyrazolyl)-1,4,6-triaza-7-naphthyl}-1,2-propanediol] | – | – | – | – | IC50 (GPR6; [3]): 100 to 1000 nM; IC50 (GPR3; [4]): 1000 to 30000 nM |
| CCn1cc(-c2nc3cnc([C@H](O)C(C)(C)O)cc3nc2N2CCC(Oc3ccc(F)cc3F)CC2)cn1 (single isomer, unassigned) [Compound 571] | – | – | – | – | IC50 (GPR6; [3]): < 100 nM; IC50 (GPR3; [4]): 1000 to 30000 nM |
| [2H]C([2H])([2H])n1cc(-c2nc3c(nc2N2CCC(Oc4ccc(F)cc4F)CC2)CCN(C(C)=O)C3)cn1 [Compound 405, 1-{2-[4-(2,4-difluorophenoxy)piperidin-1-yl]-3-[1-(2H3)methyl-1H-pyrazol-4-yl]-5H,6H,7H,8H-pyrido[3,4-b]pyrazin-6-yl}ethan-1-one] | 100 to 1000 nM | 1000 to 30000 nM | – | – | – |
| CC(C)(O)C(=O)c1cncc2nc(-c3cnn(C(F)F)c3)c(N3CCN(Cc4ccc(F)cc4F)CC3)nc12 [Compound 693, 1-{3-[1-(difluoromethyl)-4-pyrazolyl]-2-{4-[(2,4-difluorophenyl)methyl]-1-piperazinyl}-1,4,6-triaza-8-naphthyl}-2-hydroxy-2-methyl-1-propanone] | – | – | 1000 to 30000 nM | ≥ 30000 nM | – |
| COc1ccc(C(=O)N2CCN(c3nc4c(nc3-c3cnn(C)c3)CN(C(C)=O)CC4)CC2)cc1F [Compound 282, 1-{2-[4-(3-fluoro-4-methoxybenzoyl)piperazin-1-yl]-3-(1-methyl-1H-pyrazol-4-yl)-5H,6H,7H,8H-pyrido[3,4-b]pyrazin-6-yl}ethan-1-one] | – | – | ≥ 30000 nM | ≥ 30000 nM | – |
| CC(C)(O)C(O)c1cc2nc(-c3cnn(CF)c3)c(N3CCC(Oc4ccc(F)cc4F)CC3)nc2cn1 (single isomer, unassigned) [Compound 593] | – | – | – | – | IC50 (GPR6; [3]): < 100 nM; IC50 (GPR3; [4]): 100 to 1000 nM |
| CCn1cc(-c2nc3c(nc2N2CCC(Oc4ccc(F)cc4F)CC2)CCN(C(=O)C2COCCN2C)C3)cn1 (stereo not drawn) [Compound 492, 3-{2-[4-(2,4-difluorophenoxy)piperidin-1-yl]-3-(1-ethyl-1H-pyrazol-4-yl)-5H,6H,7H,8H-pyrido[3,4-b]pyrazine-6-carbonyl}-4-methylmorpholine] | – | – | – | – | IC50 (GPR6; [3]): 100 to 1000 nM; IC50 (GPR3; [4]): 1000 to 30000 nM |
| Cn1cc(-c2nc3cnccc3nc2N2CCN(CC3CCC(F)(F)CC3)CC2)cn1 [Compound 213, 1-[(4,4-difluorocyclohexyl)methyl]-4-[3-(1-methyl-1H-pyrazol-4-yl)pyrido[3,4-b]pyrazin-2-yl]piperazine] | 1000 to 30000 nM | 1000 to 30000 nM | – | – | – |
| COCCN1CCc2nc(N3CCC(Oc4ccc(F)cc4F)CC3)c(-c3cnn(C4CCCCO4)c3)nc2C1 (stereo not drawn) [Compound 142, 4-(2,4-difluorophenoxy)-1-[6-(2-methoxyethyl)-3-[1-(oxan-2-yl)-1H-pyrazol-4-yl]-5H,6H,7H,8H-pyrido[3,4-b]pyrazin-2-yl]piperidine] | 1000 to 30000 nM | 1000 to 30000 nM | – | – | – |
| CC(=O)N1CCC(c2nc3c(nc2N2CCC(Oc4ccc(F)cc4F)CC2)CCN(C(C)=O)C3)CC1 [Compound 91, 1-(4-(6-acetyl-2-(4-(2,4-difluorophenoxy)piperidin-1-yl)-5,6,7,8-tetrahydropyrido[3,4-b]pyrazin-3-yl)piperidin-1-yl)ethan-1-one] | 1000 to 30000 nM | 1000 to 30000 nM | – | – | – |
| CCn1cc(-c2nc3c(nc2N2CCC(Oc4ccc(F)cc4F)CC2)CCN(C[C@@H](O)CO)C3)cn1 (single isomer, unassigned) [Compound 290] | – | – | 100 to 1000 nM | 1000 to 30000 nM | – |
| CC(=O)N1CCc2nc(N3CCN(Cc4ccc(C#N)cc4F)CC3)c(-c3cnn(C)c3)nc2C1 [Compound 356, 4-({4-[6-acetyl-3-(1-methyl-1H-pyrazol-4-yl)-5H,6H,7H,8H-pyrido[3,4-b]pyrazin-2-yl]piperazin-1-yl}methyl)-3-fluorobenzonitrile] | – | – | 1000 to 30000 nM | 1000 to 30000 nM | – |
| CC(=O)N1CCc2nc(N3CCC(Oc4ccc(F)cc4F)CC3)c(-c3ccc4c(n3)OCC4)nc2C1 [Compound 326, 1-{2-[4-(2,4-difluorophenoxy)piperidin-1-yl]-3-{2H,3H-furo[2,3-b]pyridin-6-yl}-5H,6H,7H,8H-pyrido[3,4-b]pyrazin-6-yl}ethan-1-one] | – | – | 1000 to 30000 nM | 1000 to 30000 nM | – |
| Cn1cc(-c2nc3cnc([C@@](C)(O)CO)cc3nc2N2CCC(Oc3ccc(F)cc3F)CC2)cn1 (single isomer, unassigned) [Compound 564] | – | – | – | – | IC50 (GPR6; [3]): 100 to 1000 nM; IC50 (GPR3; [4]): 1000 to 30000 nM |
| CC(=O)N1CCc2nc(N3CCC(Oc4ccc(F)cc4F)CC3)c(-c3cccc(F)n3)nc2C1 [Compound 57, 1-{2-[4-(2,4-difluorophenoxy)piperidin-1-yl]-3-(6-fluoropyridin-2-yl)-5H,6H,7H,8H-pyrido[3,4-b]pyrazin-6-yl}ethan-1-one] | 1000 to 30000 nM | 1000 to 30000 nM | – | – | – |
| O=S(=O)(C1COC1)N1CCc2nc(N3CCC(Oc4ccc(F)cc4F)CC3)c(-c3cnn(C4CCCCO4)c3)nc2C1 (stereo not drawn) [Compound 151, 4-(2,4-difluorophenoxy)-1-{3-[1-(oxan-2-yl)-1H-pyrazol-4-yl]-6-(oxetane-3-sulfonyl)-5H,6H,7H,8H-pyrido[3,4-b]pyrazin-2-yl}piperidine] | 1000 to 30000 nM | 1000 to 30000 nM | – | – | – |
| OCCOc1cc2nc(-c3cnn(CF)c3)c(N3CCN(Cc4ccc(F)cc4F)CC3)nc2cn1 [Compound 760, 2-(3-{4-[(2,4-difluorophenyl)methyl]-1-piperazinyl}-2-[1-(fluoromethyl)-4-pyrazolyl]-1,4,6-triaza-7-naphthyloxy)ethanol] | – | – | 100 to 1000 nM | 100 to 1000 nM | – |
| CC(C)(O)[C@H](O)c1cc2nc(N3CCN(Cc4ccc(F)cc4F)CC3)c(-c3cnn(C4CC4)c3)nc2cn1 (single isomer, unassigned) [Compound 576] | – | – | – | – | IC50 (GPR6; [3]): 100 to 1000 nM; IC50 (GPR3; [4]): 1000 to 30000 nM |
| CC(=O)N1CCc2nc(N3CCC(Oc4cccc(F)c4)C3)c(-c3cnn(C)c3)nc2C1 (stereo not drawn) [Compound 383, 1-{2-[3-(3-fluorophenoxy)pyrrolidin-1-yl]-3-(1-methyl-1H-pyrazol-4-yl)-5H,6H,7H,8H-pyrido[3,4-b]pyrazin-6-yl}ethan-1-one] | 1000 to 30000 nM | 1000 to 30000 nM | – | – | – |
| CC(=O)N1CCc2nc(N3CCC(Oc4cc(Cl)ccc4Cl)CC3)c(-c3cnn(C)c3)nc2C1 [Compound 430, 1-{2-[4-(2,5-dichlorophenoxy)piperidin-1-yl]-3-(1-methyl-1H-pyrazol-4-yl)-5H,6H,7H,8H-pyrido[3,4-b]pyrazin-6-yl}ethan-1-one] | < 100 nM | 100 to 1000 nM | – | – | – |

Now from value to molecule, other results behind:

| IC50 (GPR6; [1]) | IC50 (GPR3; [2]) | IC50 (GPR6; procedure of Example 24) | IC50 (GPR3; procedure of Example 24) | SMILES | also measured |
| --- | --- | --- | --- | --- | --- |
| – | – | 100 to 1000 nM | 100 to 1000 nM | CC(C)(O)C(=O)c1cc2nc(-c3cnn(C(F)F)c3)c(N3CCN(Cc4ccc(F)cc4F)CC3)nc2cn1 [Compound 620, 1-{2-[1-(difluoromethyl)-4-pyrazolyl]-3-{4-[(2,4-difluorophenyl)methyl]-1-piperazinyl}-1,4,6-triaza-7-naphthyl}-2-hydroxy-2-methyl-1-propanone] | – |
| – | – | 100 to 1000 nM | 1000 to 30000 nM | CC(C)(O)Cc1cc2nc(-c3cnn(C(F)F)c3)c(N3CCC(Oc4ccc(F)cc4F)CC3)nc2cn1 [Compound 714, 1-{2-[1-(difluoromethyl)-4-pyrazolyl]-3-[4-(2,4-difluorophenoxy)-1-piperidyl]-1,4,6-triaza-7-naphthyl}-2-methyl-2-propanol] | – |
| 100 to 1000 nM | 1000 to 30000 nM | – | – | Cn1cc(-c2nc3cnc([C@@H](O)C(C)(C)O)cc3nc2N2CCN(Cc3ccc(F)cc3F)CC2)cn1 (single isomer, unassigned) [Compound 261] | – |
| – | – | 100 to 1000 nM | 1000 to 30000 nM | Cn1cc(-c2nc3cnc([C@@](C)(O)C(C)(C)O)cc3nc2N2CCC(Oc3ccc(F)cc3F)CC2)cn1 (single isomer, unassigned) [Compound 672] | – |
| < 100 nM | 1000 to 30000 nM | – | – | Cn1cc(-c2nc3c(nc2N2CCC(Oc4ccc(F)cc4F)CC2)CCN(S(C)(=O)=O)C3)cn1 [Compound 211, 4-(2,4-difluorophenoxy)-1-[6-methanesulfonyl-3-(1-methyl-1H-pyrazol-4-yl)-5H,6H,7H,8H-pyrido[3,4-b]pyrazin-2-yl]piperidine] | – |
